The source of these data is patent publication US6858707B1, “Hypersensitive response elicitor fragments which are active but do not elicit a hypersensitive response” (EDEN Bioscience Corporation, priority 1998, dated 2005).

Values joined by “and” are separate entries in the source; they are usually repeats but may differ in a detail not shown here. Equal entries are not always repeated.

Data set [1] has as its system tomato seeds (variety, Marglobe). The data set can be described thus: 13 amino acid peptide: tomato seedling growth after seed soak. The format is in vivo. On the procedure: The synthesized peptide was resuspended in 10 ml of 5 mM potassium phosphate buffer and, then, diluted to 1 and 100 ng/ml with the same buffer. About 100 tomato seeds (variety, Marglobe) were submerged in 20 ml of peptide solution overnight. The soaked seeds were planted in an 8 inch pot with artificial soil. Seeds soaked in the buffer without the peptide were used as a control. After seedlings emerged and the first two true leaves fully expanded, the height of the tomato seedlings was recorded.

Data set [2] concerns tobacco and other tested plants. Briefly: 13 amino acid peptide: HR in tobacco and other tested plants. The format is in vivo.
Data set [3] concerns parsley cells. The note with it: H+/Ca2+ influxes, K+/Cl− effluxes, active oxygen production, SAR gene induction, phytoalexin accumulation; cited from earlier work.
For data set [4], the system named is tomato (Lycopersicon spp. cv. Marglobe). Briefly: Induction of growth enhancement (GE/PGE), tomato seed soak. It counts as in vivo. Particulars: for PGE ht>buffer: oligopeptides, Table 5, tomato height vs buffer. On the procedure: Sixty tomato (Lycopersicon spp. cv. […] The next morning, the sixty seeds were sewn in three pots and 12-15 days later and again 18-20 days later the heights of the 10 tallest tomato plants per pot were measured and compared with the heights of the control plants treated only with phosphate buffer. Analyses were done on the heights to determine if there was a significant difference in the height of the plants treated with the truncated proteins compared with the buffer control, and thereby determine whether the proteins induced growth enhancement.

The test system of data set [5] is TMV. Briefly: Induction of systemic acquired resistance (SAR), TMV lesions on tobacco. Particulars: oligopeptides, Table 5; reduction in TMV lesions vs buffer control. The format is in vivo, Nicotiana tabacum.
Data set [6] has as its system tobacco leaves. The data set can be described thus: HR test of HrpZ fragment preparations in tobacco leaves. The format is in vivo. On the set-up: key to HR elicitation: +, elicits HR in tobacco leaves; −, no HR in tobacco leaves. On the procedure:
Amino acid fragments 152-294 and 190-294 were chosen for further analysis and characterization. It was expected that the fragment 152-294 contained a domain that elicited the HR, while fragment 190-294 contained no domain that elicited the HR. The cultures were spun down, and the bacteria resuspended in 40 ml of 10 mM Tris pH 8.0. Twenty μl of antifoam and 40 μl of 200 mM PMSF were added, and the bacteria was sonicated to break open the cells. The bacterial debris was removed by centrifugation, and the supernatant was placed in a boiling water bath for 10 min. The precipitate was removed by centrifugation and the supernatant, a crude protein preparation, was retained for tests.
Fifteen μl of each supernatant was run on a gel and stained to determine if the protein was present. It was estimated that about five times as much of the 152-294 fragment was present as the 190-294 fragment. Several dilutions of each preparation were infiltrated into tobacco leaves on two plants for HR tests (Table 7).

Data set [7] deals with TMV. The data set can be described thus: HrpZ fragments: induced resistance to TMV in tobacco. The format is in vivo. Particulars: % reduction in TMV lesions in unsprayed leaf of tobacco; 152-294 preparation diluted 40-fold, 190-294 diluted 8-fold. The protocol:
(§1) The fragment preparations were then tested for inducing resistance to TMV and for growth enhancement. Due to the difference in concentration of the HrpZ fragments, the 152-294 preparation was diluted 40-fold and the 190-294 preparation was diluted 8-fold. […] In contrast, the 152-294 aa fragment reduced the number of TMV lesions by only 55%. As also shown in Table 8, plants treated with the 152-294 aa fragment grew 4.64% more than buffer treated plants, while plants treated with the 190-294 aa fragment grew 2.62% more than the buffer treated plants.

The test system of data set [8] is tomato. Briefly: HrpZ fragments: growth enhancement (PGE). The format is in vivo. Particulars: % greater height than buffer sprayed plants; 152-294 preparation diluted 40-fold, 190-294 diluted 8-fold. On the procedure:
To test whether non-HR eliciting fragments derived from HrpZ, the hypersensitive response elicitor from Pseudomonas syringae pv. syringae, is able to induce disease resistance, several fragment constructs were made and the expressed fragment proteins were tested for HR elicitation and disease resistance induction in tobacco and growth promotion in tomato.
as §1

For data set [9], the system named is tobacco (Nicotiana tabacum v. Xanthi) leaves. The data set can be described thus: Induction of HR in tobacco by hrpN truncated proteins. Particulars: large scale purified protein; concentration down to which HR is elicited in tobacco; — = no HR. The format is in vivo. The protocol: A 1.5 ml aliquot from the 50 ml cultures grown for small scale purification of the truncated proteins was centrifuged at 14,000 rpm for four minutes and re-suspended in an equal volume of 5 mM potassium phosphate buffer, pH 6.8. The cell suspension was sonicated for ca. 30 seconds then diluted 1:2 and 1:10 with phosphate buffer. Both dilutions plus the neat cell lysate were infiltrated into the fourth to ninth leaves of 10-15 leaf tobacco plants by making a hole in single leaf panes and infiltrating the bacterial lysate into the intercellular leaf space using a syringe without a needle. The HR response was recorded 24-48 hr post infiltration. Tobacco (Nicotiana tabacum v. Xanthi) seedlings were grown in an environmental chamber at 20-25° C. with a photoperiod of 12-h light/12-h dark and ca. 40% RH. Cell lysate was used for the initial HR assays (in order to screen the truncated proteins for HR activity) as the small scale urea purification yielded very little protein which was denatured due to the purification process.
The full length positive control protein elicited HR down to only 5-7 μg/ml. […] This false HR was likely due to an affinity of the imidazole used in the purification process to bind to one or several of the background proteins, thereby not completely dialyzing out.

For data set [10], the system named is TMV. Briefly: Induction of systemic acquired resistance (SAR), TMV lesions on tobacco. It counts as in vivo, Nicotiana tabacum. Particulars: tobacco sprayed with 20 μg/ml; reduction in TMV lesions vs buffer control; listed as 19. The protocol:
Three tobacco (Nicotiana tabacum cv. Xanthi) plants with 8-12 leaves (ca. 75 day old plants) were used in the assay. One leaf of the tobacco plants was covered up and the rest of the leaves were sprayed with ca. 50 ml of a 20 μg/ml solution of the truncated proteins diluted with 5 mM potassium phosphate buffer. Five to seven days later two leaves (the unsprayed leaf and the sprayed leaf opposite and just above the unsprayed leaf) were inoculated with 20 μl of a 1.8 μg/ml solution of TMV along with a pinch of diatomaceous earth by rubbing the mixture along the top surface of the leaves. The TMV entered the plants through tiny lesions made by the diatomaceous earth. Ca. 3-4 days post TMV inolucation, the number of TMV lesions was counted on both leaves compared with the number of lesions on the negative control buffer treated leaves. Analyses were done to determine the efficacy of reducing the number of TWV lesions by the protein fragents compared to the buffer control. Percentage of efficacy was calculated as: Reduction in TMV lesions (% efficacy)=100×(1−mean # of lesions on treated leaves/mean # of lesions on buffer control leaves).

For data set [11] the following is noted: cited from earlier work.

For the molecule “NH2-Val-Trp-Asn-Gln-Pro-Val-Arg-Gly-Phe-Lys-Val-Tyr-Glu-COOH (H-VWNQPVRGFKVYE-OH; listed as Phytophthora megasperma) [13 amino acid peptide, oligopeptide derived from the 42 kDa glycoprotein elicitor of Phytophthora megasperma]”, in data set [1] (height increase vs buffer, 100 ng/ml peptide), the “% Change” value is 12.6%. Also, in data set [1] (individual tomato seedlings, seeds soaked overnight in 100 ng/ml peptide, listed as Peptide Solution), the “Height of seedlings (cm)” value was 6.5 cm (5×) and 6.0 cm (5×). Further, the “Average (cm)” value in data set [1] (mean seedling height, 100 ng/ml peptide) was 6.25 cm. Further, the HR elicitation entry in [2] was “not able to elicit the HR”. In addition, in data set [3], the “defense response in parsley cells” value is on record as “sufficient to elicit a complex defense response”.
On to “oligo 121-150: synthesized oligopeptide, amino acids 121-150 of SEQ ID NO: 23 (TTSTTNSPLDQALGINSTSQNDDSTSGTDS; listed as Erwinia amylovora)”, for which the “PGE ht>buffer” value in data set [4] amounted to 17.3%. Besides, the TMV efficacy in data set [5] was found to be 60.0%.
As for “oligo 137-156: synthesized oligopeptide, amino acids 137-156 of SEQ ID NO: 23 (STSQNDDSTSGTDSTSDSSD; listed as Erwinia amylovora)”, the “PGE ht>buffer” value in data set [4] is given as 7.4%. Further, the TMV efficacy in data set [5] is −87.7%.
Turning to “oligo 137-166: synthesized oligopeptide, amino acids 137-166 of SEQ ID NO: 23 (STSQNDDSTSGTDSTSDSSDPMQQLLKMFS; listed as Erwinia amylovora)”, the “PGE ht>buffer” value in [4] is listed as 12.0%. Further, in data set [5], the TMV efficacy worked out at 61.2%.
“oligo 150-179: synthesized oligopeptide, amino acids 150-179 of SEQ ID NO: 23 (STSDSSDPMQQLLKMFSEIMQSLFGDGQDG; listed as Erwinia amylovora)”: the “PGE ht>buffer” value in data set [4] came out at 10.1%. The TMV efficacy in data set [5] stood at 72.9%.

B1: HrpZ Fragment 190-294: amino acids 190-294 of HrpZ (SEQ ID NO: 31), calmodulin-binding peptide fusion, crude preparation (protein, listed as Pseudomonas syringae)
chain: DIIGQQLGNQQSDAGSLAGTGGGLGTPSSFSNNSSVMGDPLIDANTGPGDSGNTRGEAGQLIGELIDRGLQSVLAGGGLGTPVNTPQTGTSANGGQSAQDLDQLL
modifications: calmodulin-binding peptide fusion
Regarding B1, in data set [6] (dilutions infiltrated into tobacco leaves), the “HR elicitation (in words)” value is “did not”. In addition, the “HR test, dilution 1:2” value in [6] (preparation diluted 1:2 with MilliQ water, result for each of two plants) was “−,−”. Further, the “HR test, dilution 1:5” value in [6] (preparation diluted 1:5 with MilliQ water, result for each of two plants) is reported as “−,−”. Moreover, the “HR test, dilution 1:25” value in data set [6] (preparation diluted 1:25 with MilliQ water, result for each of two plants) is “−,−”. Moreover, in [6] (preparation diluted 1:125 with MilliQ water, result for each of two plants), the “HR test, dilution 1:125” value is on record as “−,−”. Besides, the HR elicitation result in data set [6] (tobacco leaves) was “−”. In addition, in [7], the “TMV (% efficacy)” value was 85% and 85.25%. The “PGE(% > buffer ht)” value in data set [8] worked out at 2.62%.

B2: Fragment 19: amino acids 137-204 of SEQ ID NO: 23, internal fragment (protein, listed as Erwinia amylovora)
chain: STSQNDDSTSGTDSTSDSSDPMQQLLKMFSEIMQSLFGDGQDGTQGSSSGGKQPTEGEQNAYKKGVTD
Take B2: the HR titer in [9] was 3.5 µg/mL. Moreover, the “PGE ht>buffer @10 μg/ml” value in data set [4] (tomato seeds soaked overnight at 10 μg/ml, height vs buffer control, >10% needed to pass) turned out to be 11%. For the same molecule, in data set [4] (tomato seeds soaked overnight at 20 μg/ml, height vs buffer control, >10% needed to pass), the “PGE ht>buffer @20 μg/ml” value came to 13%. Moreover, the “Efficacy of TMV control” value in [10] is 89% and 77%.

B3: hypersensitive response elicitor polypeptide or protein derived from Erwinia amylovora: elicitor from Erwinia amylovora, amino acid sequence SEQ ID NO: 23 (protein, listed as Erwinia amylovora)
chain: MSLNTSGLGASTMQISIGGAGGNNGLLGTSRQNAGLGGNSALGLGGGNQNDTVNQLAGLLTGMMMMMSMMGGGGLMGGGLGGGLGNGLGGSGGLGEGLSNALNDMLGGSLNTLGSKGGNNTTSTTNSPLDQALGINSTSQNDDSTSGTDSTSDSSDPMQQLLKMFSEIMQSLFGDGQDGTQGSSSGGKQPTEGEQNAYKKGVTDALSGLMGNGLSQLLGNGGLGGGQGGNAGTGLDGSSLGGKGLQNLSGPVDYQQLGNAVGTGIGMKAGIQALNDIGTHRHSSTRSFVNKGDRAMAKEIGQFMDQYPEVFGKPQYQKGPGQEVKTDDKSWAKALSKPDDDGMTPASMEQFNKAKGMIKRPMAGDTGNGNLQARGAGGSSLGIDAMMAGDAINNMALGKLGAA
As to B3, the “heat stable at 100° C. for” value in data set [11] is given as “at least 10 minutes”.
